Data as given in patent publication US20260125382A1, “COMPOUNDS FOR INHIBITING OR DEGRADING CDK2 AND/OR CDK9 AND MEDICINAL USE THEREOF” (KOREA RESEARCH INSTITUTE OF CHEMICAL TECHNOLOGY, priority 2022, published 2026).

Tests used:
CDK9 = biological target: T1, CDK9 (Homo sapiens, UniProt P50750); experiment: CDK protein degradation activity (Western blotting), CDK9; format: cell-based; details: MDA-MB-231 cells, 16 hours, Western blot
T1 construct: endogenous in cells; host or cells: MDA-MB-231
Outline: (§1)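 Degradation is judged from CDK2 and CDK9 band intensity relative to tubulin and DMSO-treated cells, after 16 h exposure of MDA-MB-231 cells to three compound concentrations (100 nM, 1 μM, 10 μM).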

CDK2 = biological target: T2, CDK2 (Homo sapiens, UniProt P24941); experiment: CDK protein degradation activity (Western blotting), CDK2; format: cell-based; details: MDA-MB-231 cells, 16 hours, Western blot
T2 construct: endogenous in cells; host or cells: MDA-MB-231
Outline: as §1

T1 sequence (P50750 whole entry): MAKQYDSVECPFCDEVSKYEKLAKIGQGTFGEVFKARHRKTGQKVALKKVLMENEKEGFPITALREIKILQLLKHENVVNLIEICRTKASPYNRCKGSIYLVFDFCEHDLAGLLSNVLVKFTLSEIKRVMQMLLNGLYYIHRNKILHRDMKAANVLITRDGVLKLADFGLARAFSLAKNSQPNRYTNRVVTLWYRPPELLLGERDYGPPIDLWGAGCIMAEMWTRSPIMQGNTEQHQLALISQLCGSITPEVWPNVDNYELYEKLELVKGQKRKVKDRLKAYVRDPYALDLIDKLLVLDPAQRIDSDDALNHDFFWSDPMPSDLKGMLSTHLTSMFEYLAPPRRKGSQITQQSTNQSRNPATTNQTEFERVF

Row | Enzyme degradation CDK9 (% remaining) @ 0.1 μM (CDK9) | Enzyme degradation CDK9 (% remaining) @ 1 μM (CDK9) | Enzyme degradation CDK9 (% remaining) @ 10 μM (CDK9) | Enzyme degradation CDK2 (% remaining) @ 0.1 μM (CDK2) | Enzyme degradation CDK2 (% remaining) @ 1 μM (CDK2) | Enzyme degradation CDK2 (% remaining) @ 10 μM (CDK2) | SMILES
1 | 50% | 40% | 0% | 40% | 30% | 50% | O=C1CC[C@H](N2C(=O)c3ccc(N4CCC(CN5CCC(CNc6ncnc7c6ncn7C6CC(NC(=O)Cc7ccccc7)C6)CC5)CC4)cc3C2=O)C(=O)N1 (stereo partly drawn) [Compound 181, N-((1s,3s)-3-(6-(((1-((1-(2-(2,6-dioxopiperidin-3-yl)-1,3-dioxoisoindolin-5-yl)piperidin-4-yl)methyl)piperidin-4-yl)methyl)amino)-9H-purin-9-yl)cyclobutyl)-2-phenylacetamide]
2 | 20% | 10% | 0% | 70% | 50% | 50% | O=C1CC[C@H](N2C(=O)c3cccc(OCC(=O)N4CCC(CN5CCC(CNc6ncnc7c6ncn7C6CC(NC(=O)Cc7ccccc7)C6)CC5)CC4)c3C2=O)C(=O)N1 (stereo partly drawn) [Compound 182, N-((1s,3s)-3-(6-(((1-((1-(2-((2-(2,6-dioxopiperidin-3-yl)-1,3-dioxoisoindolin-4-yl)oxy)acetyl)piperidin-4-yl)methyl)piperidin-4-yl)methyl)amino)-9H-purin-9-yl)cyclobutyl)-2-phenylacetamide]
3 | 0/0/0% | 0/0/0% | 0/0/0% | 70% | 70% | 50% | O=C1CC[C@H](N2C(=O)c3cccc(NCC(=O)N4CCC(CN5CCC(CNc6ncnc7c6ncn7C6CC(NC(=O)Cc7ccccc7)C6)CC5)CC4)c3C2=O)C(=O)N1 (stereo partly drawn) [Compound 184, N-((1s,3s)-3-(6-(((1-((1-((2-(2,6-dioxopiperidin-3-yl)-1,3-dioxoisoindolin-4-yl)glycyl)piperidin-4-yl)methyl)piperidin-4-yl)methyl)amino)-9H-purin-9-yl)cyclobutyl)-2-phenylacetamide]
4 | 0/0/0% | 0/0/0% | 0/0/0% | 100/100/100% | 100/100/100% | 100/100/100% | O=C1CCC(N2C(=O)c3ccc(NCC(=O)N4CCC(CN5CCC(CNc6ncnc7c6ncn7[C@H]6C[C@@H](NC(=O)Cc7ccccc7)C6)CC5)CC4)cc3C2=O)C(=O)N1 (stereo partly drawn) [Compound 185, N-((1s,3s)-3-(6-(((1-((1-((2-(2,6-dioxopiperidin-3-yl)-1,3-dioxoisoindolin-5-yl)glycyl)piperidin-4-yl)methyl)piperidin-4-yl)methyl)amino)-9H-purin-9-yl)cyclobutyl)-2-phenylacetamide]
5 | 10% | 0% | 0% | 30% | 10% | 20% | O=C1CCN(c2coc3cc(C(=O)N4CCC(CN5CCN(c6ccc(Nc7ncnc8c7ncn8[C@H]7C[C@@H](NC(=O)Cc8ccccc8)C7)cc6)CC5)CC4)ccc23)C(=O)N1 [Compound 187, N-((1s,3s)-3-(6-((4-(4-((1-(3-(2,4-dioxotetrahydropyrimidin-1(2H)-yl)benzofuran-6-carbonyl)piperidin-4-yl)methyl)piperazin-1-yl)phenyl)amino)-9H-purin-9-yl)cyclobutyl)-2-phenylacetamide]
6 | 20% | 20% | 10% | 80% | 70% | 60% | O=C1CC[C@H](N2C(=O)C=C(Nc3cccc(CC(=O)N4CCC(CN5CCN(c6ccc(Nc7ncnc8c7ncn8C7CC(NC(=O)Cc8ccccc8)C7)cc6)CC5)CC4)c3)C2=O)C(=O)N1 (stereo partly drawn) [Compound 188, N-((1s,3s)-3-(6-((4-(4-((1-(2-(3-((1-(2,6-dioxopiperidin-3-yl)-2,5-dioxo-2,5-dihydro-1H-pyrrol-3-yl)amino)phenyl)acetyl)piperidin-4-yl)methyl)piperazin-1-yl)phenyl)amino)-9H-purin-9-yl)cyclobutyl)-2-phenylacetamide]
7 | 0/0/0% | 0/0/0% | 0/0/0% | 30% | 20% | 40% | O=C1CC[C@H](N2C(=O)C=C(N3CCC(C(=O)N4CCC(CN5CCN(c6ccc(Nc7ncnc8c7ncn8[C@H]7C[C@@H](NC(=O)Cc8ccccc8)C7)cc6)CC5)CC4)CC3)C2=O)C(=O)N1 [Compound 189, N-((1s,3s)-3-(6-((4-(4-((1-(1-(1-(2,6-dioxopiperidin-3-yl)-2,5-dioxo-2,5-dihydro-1H-pyrrol-3-yl)piperidin-4-carbonyl)piperidin-4-yl)methyl)piperazin-1-yl)phenyl)amino)-9H-purin-9-yl)cyclobutyl)-2-phenylacetamide]
8 | 0/0/0% | 0/0/0% | 0/0/0% | 0/0/0% | 0/0/0% | 0/0/0% | O=C1CCN(c2coc3cc(C(=O)N4CCC5(CC4)CC(N4CCN(c6ccc(Nc7ncnc8c7ncn8[C@H]7C[C@@H](NC(=O)Cc8ccccc8)C7)cc6)CC4)C5)ccc23)C(=O)N1 [Compound 191, N-((1s,3s)-3-(6-((4-(4-(7-(3-(2,4-dioxotetrahydropyrimidin-1(2H)-yl)benzofuran-6-carbonyl)-7-azaspiro[3.5]nonan-2-yl)piperazin-1-yl)phenyl)amino)-9H-purin-9-yl)cyclobutyl)-2-phenylacetamide]
9 | 20% | 20% | 10% | 70% | 70% | 50% | O=C1CC[C@H](N2C(=O)C=C(Nc3cccc(CC(=O)N4CCC5(CC4)CC(N4CCN(c6ccc(Nc7ncnc8c7ncn8[C@H]7C[C@@H](NC(=O)Cc8ccccc8)C7)cc6)CC4)C5)c3)C2=O)C(=O)N1 [Compound 192, N-((1s,3s)-3-(6-((4-(4-(7-(2-(3-((1-(2,6-dioxopiperidin-3-yl)-2,5-dioxo-2,5-dihydro-1H-pyrrol-3-yl)amino)phenyl)acetyl)-7-azaspiro[3.5]nonan-2-yl)piperazin-1-yl)phenyl)amino)-9H-purin-9-yl)cyclobutyl)-2-phenylacetamide]
10 | 0% | 10% | 10% | 20% | 20% | 10% | O=C1CC[C@H](N2C(=O)C=C(N3CCC(C(=O)N4CCC5(CC4)CC(N4CCN(c6ccc(Nc7ncnc8c7ncn8C7CC(NC(=O)Cc8ccccc8)C7)cc6)CC4)C5)CC3)C2=O)C(=O)N1 (stereo partly drawn) [Compound 193, N-((1s,3s)-3-(6-((4-(4-(7-(1-(1-(2,6-dioxopiperidin-3-yl)-2,5-dioxo-2,5-dihydro-1H-pyrrol-3-yl)piperidin-4-carbonyl)-7-azaspiro[3.5]nonan-2-yl)piperazin-1-yl)phenyl)amino)-9H-purin-9-yl)cyclobutyl)-2-phenylacetamide]
11 | 70% | 50% | 40% | 50% | 10% | 10% | COc1ccc(C(=O)N2CCC(CC(=O)N3CCN(c4ccc(Nc5ncnc6c5ncn6[C@H]5C[C@@H](NC(=O)Cc6ccccc6)C5)cc4)CC3)CC2)cc1N1CCC(=O)NC1=O [Compound 194, N-((1s,3s)-3-(6-((4-(4-(2-(1-(3-(2,4-dioxotetrahydropyrimidin-1(2H)-yl)-4-methoxybenzoyl)piperidin-4-yl)acetyl)piperazin-1-yl)phenyl)amino)-9H-purin-9-yl)cyclobutyl)-2-phenylacetamide]
12 | 20% | 10% | 10% | 80% | 50% | 50% | O=C1CCN(c2coc3cc(C(=O)N4CCC(CC(=O)N5CCN(c6ccc(Nc7ncnc8c7ncn8[C@H]7C[C@@H](NC(=O)Cc8ccccc8)C7)cc6)CC5)CC4)ccc23)C(=O)N1 [Compound 195, N-((1s,3s)-3-(6-((4-(4-(2-(1-(3-(2,4-dioxotetrahydropyrimidin-1(2H)-yl)benzofuran-6-carbonyl)piperidin-4-yl)acetyl)piperazin-1-yl)phenyl)amino)-9H-purin-9-yl)cyclobutyl)-2-phenylacetamide]
